The structures appear in SMILES notation.

Holding throughout (type): in vivo, male Sprague-Dawley I.O.P.S. rats
Data set [1] has as its system granuloma. The data set is described as follows: Local anti-inflammatory activity: inhibition of granuloma formation around implanted cotton wool pellet. As to conditions: for R 1 (relative local anti-inflammatory activity compared with betamethasone 17,21-dipropionate): D.P.B. = 1, calculated from ED50; for R 1 (relative local anti-inflammatory activity compared with betamethasone 17,21-dipropionate) / ED50 (local anti-inflammatory activity, 50% inhibition in granuloma weight): Table 1; for ED50 (local anti-inflammatory activity, 50% inhibition in granuloma weight): rat, cotton pellet granuloma, six days after implantation; for activity compared with betamethasone 17,21-dipropionate (times greater): local anti-inflammatory test. The protocol:
A. Winter and C. C. Porter (J. Am. Pharm. Ass. 1957, 46, 9, pages 515-519).
(§1) The principle of the test consists in implanting a pellet of cotton wool in the dorsal subcutaneous tissue of the animal. The corticoids to be studied are added to the pellet so that the following tests can be carried out:
(1) Determination of the local anti-inflammatory activity
The presence of products within the pellet may inhibit or prevent the formation of a granuloma.
(§2) The animals are divided into random homogeneous groups of 10 male Sprague-Dawley I.O.P.S. rats with a body weight of between 100 and 120 grams.
(§3) The pellets to be implanted weigh from 35 to 40 mg and are prepared from balls of dental cotton wool. Before being inserted, each pellet is weighed and impregnated with the precise quantity of the product which is to be studied, dissolved in 0.2 ml of chloroform. The chloroform is eliminated by evaporation over a period of 24 hours at ambient temperature.
(§4) Before implantation, each pellet is impregnated with a solution of antibiotics:
Streptomycin 0.1 gram/ml.
(§5) The animals are anaesthetised with ether, and then two pellets are implanted in each animal in the dorsal subcutaneous tissue, on each side of the median line:
(§6) on the left, the pellet containing the product to be tested (treated animal) or the carrier only (control animal);
(§7) on the right, the pellet containing the carrier only.
(§8) The animals are given normal food and are sacrificed six days after the pellets have been implanted.
(1) Local anti-inflammatory activity
The pellets surrounded by granulomatous tissue are carefully removed and weighed, and then dried until a constant weight is obtained.
The relative activity of the test products compared with betamethasone 17,21-dipropionate is calculated according to the following equation: [formula]

Data set [2] can be described thus: Systemic activity after local administration: effect on weight gain. The conditions noted are these: rat, in vivo, 8640 min. The protocol: (§9) The pharmacological activity of the products described in the invention was tested in the rat using a technique similar to that described by C. A. Winter and C. C. Porter (J. Am. Pharm. Ass. 1957, 46, 9, pages 515-519).
as §1
(§10) (2) Determination of the systemic activity of the products after local administration
(§11) Local application of the corticoids may result, inter alia, in:
(b) Disruption of the protein metabolism which causes tissue fusion, resulting in an inhibition of the weight increase in animals.
as §2, §3, §4, §5, §6, §7, §8
(b) Effect on weight gain
The weight gain over six days is determined on the animals before they are sacrificed.
The activity of the products was expressed as the percentage inhibition in the weight gain of the treated animals compared with the weight gain in the control animals.
The ED 30 which corresponds to a 30% inhibition in the weight gain was determined.

In data set [3] the test system is thymus. Description: Systemic activity after local administration: effect on the weight of the thymus. The conditions noted are these: rat, in vivo, 8640 min. The protocol:
as §9, §1, §10, §11
(a) a reduction in the defence systems of the organism, the most notable sign of which is a reduction in the weight of the animals' thymuses.
as §2, §3, §4, §5, §6, §7, §8
(2) Determination of the systemic effect
The thymuses are taken from the same animals and weighed. Using the same type of calculation, an ED 50 is determined, which corresponds to the dosage of product resulting in a 50% decrease in weight of the thymuses, compared with the control animals.

Regarding `CCC(=O)SCC(=O)C1(OC(C)=O)C(C)CC2C3CCC4=CC(=O)C=CC4(C)C3(F)C(O)CC21C` (stereo not drawn) [Ex. 9, 9α-fluoro-11β-hydroxy-16β-methyl-pregna-diene-3,20-dione (or betamethasone) 17-acetate, 21-thiopropionate], in data set [1], the “R 1 (relative local anti-inflammatory activity compared with betamethasone 17,21-dipropionate)” value is recorded as 16 and the “ED50 (local anti-inflammatory activity, 50% inhibition in granuloma weight)” value is 0.100 mg/pellet. Further, in data set [2], the “ED30 (30% inhibition in the weight gain)” value was 1 mg/pellet and the “R 3 (relative activity on weight gain compared with D.P.B.)” value is 0.8. In data set [3], the “ED50 (50% decrease in weight of the thymuses)” value is given as 1.70 mg/pellet and the “R 2 (relative effect on thymus weight compared with D.P.B.)” value stood at 0.51.

On to `CCC(=O)OC1(C(=O)CSC(C)=O)C(C)CC2C3CCC4=CC(=O)C=CC4(C)C3(F)C(O)CC21C` (stereo not drawn) [Ex. 10, 9α-fluoro-11β-hydroxy-16β-methyl-pregna-1,4-diene-3,20-dione (or betamethasone) 17-propionate, 21-thioacetate], for which, in data set [1], the “R 1 (relative local anti-inflammatory activity compared with betamethasone 17,21-dipropionate)” value is 124; the “activity compared with betamethasone 17,21-dipropionate (times greater)” value is “more than 100 times”; the “ED50 (local anti-inflammatory activity, 50% inhibition in granuloma weight)” value was determined as 0.013 mg/pellet. In addition, in data set [2], the “ED30 (30% inhibition in the weight gain)” value is recorded as above 1 mg/pellet and the “R 3 (relative activity on weight gain compared with D.P.B.)” value is below 0.8. In addition, in data set [3], the “ED50 (50% decrease in weight of the thymuses)” value is 0.25 mg/pellet and the “R 2 (relative effect on thymus weight compared with D.P.B.)” value is recorded as 3.40.

As for `CCC(=O)OC1(C(=O)CSC(=O)CC)C(C)CC2C3CCC4=CC(=O)C=CC4(C)C3(F)C(O)CC21C` (stereo not drawn) [Ex. 11, 9α-fluoro-11β-hydroxy-16β-methyl-pregna-1,4-diene-3,20-dione (or betamethasone) 17-propionate, 21-thiopropionate], in data set [1], the “R 1 (relative local anti-inflammatory activity compared with betamethasone 17,21-dipropionate)” value is on record as 134; the “activity compared with betamethasone 17,21-dipropionate (times greater)” value is “more than 100 times”; the “ED50 (local anti-inflammatory activity, 50% inhibition in granuloma weight)” value is given as 0.012 mg/pellet. In data set [2], the “ED30 (30% inhibition in the weight gain)” value was 0.8 mg/pellet and the “R 3 (relative activity on weight gain compared with D.P.B.)” value is 1. Also, in data set [3], the “ED50 (50% decrease in weight of the thymuses)” value worked out at 0.46 mg/pellet and the “R 2 (relative effect on thymus weight compared with D.P.B.)” value was determined as 1.9.

As to `CCCCC(=O)OC1(C(=O)CSC(=O)CCCC)C(C)CC2C3CCC4=CC(=O)C=CC4(C)C3(F)C(O)CC21C` (stereo not drawn) [Ex. 12, 9α-fluoro-11β-hydroxy-16β-methyl-pregna-1,4-diene-3,20-dione (or betamethasone) 17-valerate, 21-thiovalerate], in data set [1], the “R 1 (relative local anti-inflammatory activity compared with betamethasone 17,21-dipropionate)” value is above 129; the “activity compared with betamethasone 17,21-dipropionate (times greater)” value is “more than 100 times”; the “ED50 (local anti-inflammatory activity, 50% inhibition in granuloma weight)” value is on record as below 0.0125 mg/pellet. For the same molecule, in data set [2], the “ED30 (30% inhibition in the weight gain)” value was above 0.8 mg/pellet and the “R 3 (relative activity on weight gain compared with D.P.B.)” value is on record as below 1. In addition, in data set [3], the “ED50 (50% decrease in weight of the thymuses)” value is above 0.8 mg/pellet and the “R 2 (relative effect on thymus weight compared with D.P.B.)” value is recorded as below 1.

For `CCCCC(=O)OC1(C(=O)CSC(C)=O)C(C)CC2C3CCC4=CC(=O)C=CC4(C)C3(F)C(O)CC21C` (stereo not drawn) [Ex. 13, 9α-fluoro-11β-hydroxy-16β-methyl-pregna-1,4-diene-3,20-dione (or betamethasone) 17-valerate, 21-thioacetate], in data set [1], the “R 1 (relative local anti-inflammatory activity compared with betamethasone 17,21-dipropionate)” value is reported as 32.2 and the “ED50 (local anti-inflammatory activity, 50% inhibition in granuloma weight)” value is 0.050 mg/pellet. Also, in data set [2], the “ED30 (30% inhibition in the weight gain)” value was found to be 0.65 mg/pellet and the “R 3 (relative activity on weight gain compared with D.P.B.)” value turned out to be 1.23. For the same molecule, in data set [3], the “ED50 (50% decrease in weight of the thymuses)” value stood at 0.8 mg/pellet and the “R 2 (relative effect on thymus weight compared with D.P.B.)” value came to 1.1.

In the case of `CC(=O)OC1(C(=O)CSC(=O)CC(C)(C)C)C(C)CC2C3CCC4=CC(=O)C=CC4(C)C3(F)C(O)CC21C` (stereo not drawn) [Ex. 14, 9α-fluoro-11β-hydroxy-16α-methyl-pregna-1,4-diene-3,20-dione (or dexamethasone) 17-acetate, 21-thio-tert.butyl-acetate], in data set [1], the “R 1 (relative local anti-inflammatory activity compared with betamethasone 17,21-dipropionate)” value is recorded as 537; the “activity compared with betamethasone 17,21-dipropionate (times greater)” value is “more than 100 times”; the “ED50 (local anti-inflammatory activity, 50% inhibition in granuloma weight)” value came to 0.003 mg/pellet. Moreover, in data set [2], the “ED30 (30% inhibition in the weight gain)” value is recorded as 0.015 mg/pellet and the “R 3 (relative activity on weight gain compared with D.P.B.)” value is listed as 53. In data set [3], the “ED50 (50% decrease in weight of the thymuses)” value worked out at 0.33 mg/pellet and the “R 2 (relative effect on thymus weight compared with D.P.B.)” value was 2.6.

Turning to `CCC(=O)OC1(C(=O)CSC(=O)CC)C(C)CC2C3CCC4=CC(=O)C=CC4(C)C3(Cl)C(O)CC21C` (stereo not drawn) [Ex. 15, 9α-chloro-11β-hydroxy-16β-methyl-pregna-1,4-diene-3,20-dione (or beclomethasone) 17-propionate, 21-thiopropionate], in data set [1], the “R 1 (relative local anti-inflammatory activity compared with betamethasone 17,21-dipropionate)” value was above 322; the “activity compared with betamethasone 17,21-dipropionate (times greater)” value is on record as “more than 100 times”; the “ED50 (local anti-inflammatory activity, 50% inhibition in granuloma weight)” value was below 0.005 mg/pellet. In addition, in data set [2], the “ED30 (30% inhibition in the weight gain)” value amounted to 0.56 mg/pellet and the “R 3 (relative activity on weight gain compared with D.P.B.)” value came to 1.42. Further, in data set [3], the “ED50 (50% decrease in weight of the thymuses)” value was determined as 2.4 mg/pellet and the “R 2 (relative effect on thymus weight compared with D.P.B.)” value is recorded as 0.36.

As for `CCCCC(=O)SCC(=O)C1(OC(=O)CC)C(C)CC2C3CCC4=CC(=O)C=CC4(C)C3(Cl)C(O)CC21C` (stereo not drawn) [Ex. 16, 9α-chloro-11β-hydroxy-16β-methyl-pregna-1,4-diene-3,20-dione (or beclomethasone) 17-propionate, 21-thiovalerate], in data set [1], the “R 1 (relative local anti-inflammatory activity compared with betamethasone 17,21-dipropionate)” value is given as 13.4 and the “ED50 (local anti-inflammatory activity, 50% inhibition in granuloma weight)” value turned out to be 0.120 mg/pellet. In data set [2], the “ED30 (30% inhibition in the weight gain)” value was above 1.0 mg/pellet and the “R 3 (relative activity on weight gain compared with D.P.B.)” value is below 0.8. In addition, in data set [3], the “ED50 (50% decrease in weight of the thymuses)” value is recorded as above 1 mg/pellet and the “R 2 (relative effect on thymus weight compared with D.P.B.)” value is reported as below 0.86.

As for `CCCCC(=O)OC1(C(=O)CSC(C)=O)C(C)CC2C3CCC4=CC(=O)C=CC4(C)C3(Cl)C(O)CC21C` (stereo not drawn) [Ex. 17, 9α-chloro-11β-hydroxy-16β-methyl-pregna-1,4-diene-3,20-dione (or beclomethasone) 17-valerate, 21-thioacetate], in data set [1], the “R 1 (relative local anti-inflammatory activity compared with betamethasone 17,21-dipropionate)” value is on record as 8.9 and the “ED50 (local anti-inflammatory activity, 50% inhibition in granuloma weight)” value stood at 0.180 mg/pellet. In addition, in data set [2], the “ED30 (30% inhibition in the weight gain)” value is given as above 1.0 mg/pellet and the “R 3 (relative activity on weight gain compared with D.P.B.)” value was below 0.8. Moreover, in data set [3], the “ED50 (50% decrease in weight of the thymuses)” value was above 1 mg/pellet and the “R 2 (relative effect on thymus weight compared with D.P.B.)” value was below 0.86.

As to `CCCCC(=O)OC1(C(=O)CSC(=O)CCCC)C(C)CC2C3CCC4=CC(=O)C=CC4(C)C3(Cl)C(O)CC21C` (stereo not drawn) [Ex. 18, 9α-chloro-11β-hydroxy-16β-methyl-pregna-1,4-diene-3,20-dione (or beclomethasone) 17-valerate, 21-thiovalerate], in data set [1], the “R 1 (relative local anti-inflammatory activity compared with betamethasone 17,21-dipropionate)” value is 16.8 and the “ED50 (local anti-inflammatory activity, 50% inhibition in granuloma weight)” value is 0.096 mg/pellet. For the same molecule, in data set [2], the “ED30 (30% inhibition in the weight gain)” value is reported as above 1.0 mg/pellet and the “R 3 (relative activity on weight gain compared with D.P.B.)” value is recorded as below 0.8. Besides, in data set [3], the “ED50 (50% decrease in weight of the thymuses)” value is above 1 mg/pellet and the “R 2 (relative effect on thymus weight compared with D.P.B.)” value is below 0.86.

For `C=C1C[C@H]2[C@@H]3CCC4=CC(=O)C=C[C@]4(C)[C@H]3[C@@H](O)C[C@]2(C)[C@@]1(OC(=O)CC)C(=O)CSC(=O)CC` [Ex. 19, 11β-hydroxy-16-methylene-pregna-1,4-diene-3,20 dione (or prednylidene)17-propionate, 21-thiopropionate], in data set [1], the “R 1 (relative local anti-inflammatory activity compared with betamethasone 17,21-dipropionate)” value was 0.89 and the “ED50 (local anti-inflammatory activity, 50% inhibition in granuloma weight)” value was determined as 1.800 mg/pellet. In data set [2], the “ED30 (30% inhibition in the weight gain)” value was 0.015 mg/pellet and the “R 3 (relative activity on weight gain compared with D.P.B.)” value was found to be 53. Moreover, in data set [3], the “ED50 (50% decrease in weight of the thymuses)” value is reported as 7 mg/pellet and the “R 2 (relative effect on thymus weight compared with D.P.B.)” value was 0.12.
